What was measured:
BflsABN43B = target: T1, BflsABN43B (Bifidobacterium longum, UniProt A0A087B7X0); experiment: TLC of hydrolysis products; assay type: biochemical; details: 0.5% substrate, optimal conditions (pH 6.0, 50 °C)
T1 construct: gene BLSS_1420; full length, 581 aa, 65 kDa, C-terminal His6, E. coli BL21(DE3); starts MTATTS by primer
T1 sequence (A0A087B7X0 1-581): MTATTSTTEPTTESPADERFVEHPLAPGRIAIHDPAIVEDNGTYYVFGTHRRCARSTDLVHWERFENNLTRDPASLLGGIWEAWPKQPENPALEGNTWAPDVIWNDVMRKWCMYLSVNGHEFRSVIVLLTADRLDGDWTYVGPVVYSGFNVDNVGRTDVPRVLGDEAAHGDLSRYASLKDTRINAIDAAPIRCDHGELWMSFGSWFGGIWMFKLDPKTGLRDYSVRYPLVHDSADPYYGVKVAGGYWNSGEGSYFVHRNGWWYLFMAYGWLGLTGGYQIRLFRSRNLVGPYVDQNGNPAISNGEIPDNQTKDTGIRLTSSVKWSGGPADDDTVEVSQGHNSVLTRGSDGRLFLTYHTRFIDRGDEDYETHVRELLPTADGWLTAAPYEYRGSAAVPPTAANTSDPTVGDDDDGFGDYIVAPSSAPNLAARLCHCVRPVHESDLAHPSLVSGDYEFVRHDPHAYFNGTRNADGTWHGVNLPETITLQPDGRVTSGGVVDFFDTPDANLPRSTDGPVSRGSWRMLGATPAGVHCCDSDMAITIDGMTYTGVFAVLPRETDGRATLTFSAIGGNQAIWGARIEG

BflsABN43A = target: T2, BflsABN43A (Bifidobacterium longum, UniProt A0A087B7X1); experiment: TLC of hydrolysis products; assay type: biochemical; details: 0.5% substrate, optimal conditions (pH 5.0, 45 °C)
T2 construct: gene BLSS_1421; 531 aa (56 kDa) printed; 35-residue signal peptide removed (primer deltaS; starts M-SSNAKN by primer), C-terminal His6, E. coli; caution: same WP id also printed for BflsABF43A (710 aa)
T2 sequence (A0A087B7X1 36-531): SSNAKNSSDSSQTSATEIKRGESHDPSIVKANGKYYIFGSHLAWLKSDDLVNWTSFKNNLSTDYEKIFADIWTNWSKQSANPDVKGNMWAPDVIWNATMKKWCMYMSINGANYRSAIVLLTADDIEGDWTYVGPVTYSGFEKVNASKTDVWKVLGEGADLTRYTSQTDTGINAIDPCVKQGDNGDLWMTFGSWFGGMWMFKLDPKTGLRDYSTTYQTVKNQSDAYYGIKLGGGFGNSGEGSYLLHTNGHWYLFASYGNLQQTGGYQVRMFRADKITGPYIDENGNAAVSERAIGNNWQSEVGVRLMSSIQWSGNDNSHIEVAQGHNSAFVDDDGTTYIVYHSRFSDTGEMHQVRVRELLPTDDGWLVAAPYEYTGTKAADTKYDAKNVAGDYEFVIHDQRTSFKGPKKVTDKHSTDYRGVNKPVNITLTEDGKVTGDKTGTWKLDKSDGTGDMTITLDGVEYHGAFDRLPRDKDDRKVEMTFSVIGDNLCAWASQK

Q: How did the “TLC of hydrolysis products” value (BflsABN43B) turn out when `OC[C@@H]1O[C@@H](OC[C@@H]2O[C@@H](OC[C@@H]3O[C@@H](OC[C@@H]4O[C@@H](OC[C@@H]5O[C@@H](OC[C@@H]6OC(O)[C@H](O)[C@H]6O)[C@H](O)[C@H]5O)[C@H](O)[C@H]4O)[C@H](O)[C@H]3O)[C@H](O)[C@H]2O)[C@H](O)[C@H]1O` (some centres unmarked) [A6, arabinohexaose] was run?
A: The value was “both ABNs demonstrated detectable hydrolytic activities to produce A2 and arabinotetraose (A4)”.

Q: What about the “TLC of hydrolysis products” value (BflsABN43A) of the same compound?
A: Its value is “both ABNs demonstrated detectable hydrolytic activities to produce A2 and arabinotetraose (A4)”.

Reference: publication PMC10970622, “Functional Characterization of Endo- and Exo-Hydrolase Genes in Arabinan Degradation Gene Cluster of Bifidobacterium longum subsp. suis” (International Journal of Molecular Sciences, 2024)
